# Data reported in patent EP2706985B1 (Acerus Biopharma Inc., priority 2011, dated 2012).
# Experiment: Example 11 Period 2: multiple-dose pharmacokinetics (free and total testosterone, dihydrotestosterone, estradiol, SHBG)
# Details: multi-dose, PK conclusions
structure (smiles),measurement,value
"C[C@]12CC[C@H]3[C@@H](CCC4=CC(=O)CC[C@@]43C)[C@@H]1CC[C@@H]2O [Testosterone, 17β-Hydroxyandrost-4-en-3-one]",time to return to baseline,12 to 15 h
